Data from paper PMC12294558, “New 1,2,4-Triazole Derivatives with a N-Mannich Base Structure Based on a 4,6-Dimethylpyridine Scaffold as Anticancer Agents: Design, Synthesis, Biological Evaluation, and Molecular Modeling” (International Journal of Molecular Sciences, 2025).
Marks after values point to notes of the source that are not given here.

Legend:
HepG2 cells = test system: HepG2 cells; parameters: method as in PMID 36181443; details: cited from earlier work
LoVo cells = test: MTT viability assay, colorectal cancer cells LoVo; type: cell-based, human; details: for SI, LoVo: CC50 CCD 841 CoTr / CC50 LoVo; for CC50: Homo sapiens, LoVo, MTT, 24 h, Non-toxic = no toxicity in tested range 1–500 μM, read-out: CC50 ± SD, LoVo
Procedure: (§1) The cytotoxic effects of ten newly synthesized N-Mannich bases were assessed on the normal human intestinal epithelium (CCD 841 CoTr) and cancer cell lines: gastric cancer (EPG) and four colorectal cancer lines (Caco-2, LoVo, LoVo/Dx, and HT-29). Cell viability was evaluated using the MTT assay in accordance with Annex C of ISO 10993-5 [33].
(§2) The biological activity of the newly synthesized compounds was assessed in the context of anticancer activity. For this purpose, several gastrointestinal cancer lines were selected: gastric cancer (EPG 257, which belongs to the collection of the Laboratory of Cell Culture and Advanced Therapy at the University of Environmental and Life Sciences in Wrocław), and four colorectal cancer cell lines (LoVo, Caco-2, and HT-29) were obtained from the European Collection of Authenticated Cell Cultures (ECACC) and were delivered by Sigma-Aldrich, a certified distributor for the biobank. Additionally, LoVo cells were used to develop a doxorubicin-resistant subline, referred to as LoVo/Dx. Resistance was induced through gradual adaptation to increasing concentrations of doxorubicin, starting from 0.1 µg/mL and incrementally raised to 0.8 µg/mL. After reaching the maximum concentration, the cells were maintained in a medium containing 0.4 µg/mL doxorubicin for a period of three months to stabilize the resistant phenotype. […] The resulting LoVo/Dx subline, resistant to doxorubicin, was cultured in DMEM/F-12 medium and utilized in assays evaluating the effectiveness of novel compounds against multidrug-resistant cancer cells. […] The non-cancerous cell control was normal colonic epithelial cells (CCD 841 CoTr from American Type Culture Collection, (ATCC, Manassas, VA, USA)). Cell cultures were performed under standard conditions (5% CO2, 95% humidity, and 37 °C). Each cell line was cultured in the recommended medium: (1) HT-29 in McCoy’s 5a, (2) Caco-2 in Minimal Essential Medium (MEM, Biological Industries, Beit Haemek, Israel), (3) CCD 841 CoTr in Dulbecco’s Modified Eagle Medium (DMEM, Biological Industries, Beit Haemek, Israel), (4) LoVo in Dulbecco’s Modified Eagle Medium/F-12 (DMEM/F-12; Biological Industries, Beit Haemek, Israel), (5) LoVo/Dx in DMEM/F-12, and (6) EPG in DMEM. Culture media were supplemented with 10% fetal bovine serum (FBS, Sigma-Aldrich, Darmstadt, Germany) and antibiotics (penicillin and streptomycin; Sigma-Aldrich, Darmstadt, Germany). For assays, trypsinized (TrypLE solution, Thermo Fisher Scientific, Waltham, MA, USA) cells were seeded at appropriate densities of 10,000 cells per well for MTT and determination of apoptotic and necrotic cell numbers; 30,000 cells per well for the rhodamine accumulation assay; and 500,000 cells per well for ELISA tests.
(§3) The cytotoxicity of the compounds and drugs used as controls was assessed using the MTT assay. The assay also included a DMSO control. After seeding and allowing the cells to adhere overnight, they were treated with the tested compounds and drugs for another 24 h. After this time, the supernatant was removed, and a 1 mg/mL MTT solution was added for 2 h in 5% CO2, 95% humidity, at 37 °C. The supernatant was then removed, and isopropanol was added to dissolve the purple crystals over 30 min by shaking. Absorbance was measured at 570 nm in a Multiskan GO microplate reader (Thermo Fisher Scientific; Waltham, MA, USA). All reagents used for the assays were purchased from Sigma-Aldrich, Darmstadt, Germany.
(§4) Biological assays were performed in three independent replicates, each involving four samples. ELISA determinations were repeated three times.

[1] = MTT viability assay, normal colonic epithelial cells; type: cell-based, human; details: human, CCD 841 CoTr normal colonic epithelial cells, Non-toxic = no toxicity in tested range 1–500 μM, read-out: CC50 ± SD, CCD 841 CoTr
Procedure: as §1, §2, §3, §4

LoVo/Dx cells = test: MTT viability assay, doxorubicin-resistant LoVo/Dx; type: cell-based, human; details: for SI, LoVo/Dx: CC50 CCD 841 CoTr / CC50 LoVo/Dx; for CC50: Homo sapiens, LoVo/DX, MTT, 24 h, read-out: CC50 ± SD, LoVo/Dx
Procedure: as §1, §2, §3, §4

EPG cells = test: MTT viability assay, gastric cancer cells; type: cell-based, human; details: for SI, EPG: CC50 CCD 841 CoTr / CC50 EPG; for CC50: Homo sapiens, MTT, 24 h, read-out: CC50 ± SD, EPG
Procedure: as §1, §2, §3, §4

HT-29 cells = test: MTT viability assay, colorectal cancer cells HT-29; type: cell-based, human; details: for SI, HT-29: CC50 CCD 841 CoTr / CC50 HT-29; for CC50: Homo sapiens, HT-29, MTT, 24 h, read-out: CC50 ± SD, HT-29
Procedure: as §1, §2, §3, §4

Caco-2 cells = test: MTT viability assay, colorectal cancer cells Caco-2; type: cell-based, human; details: for SI, Caco-2: CC50 CCD 841 CoTr / CC50 Caco-2; for CC50: Homo sapiens, Caco-2, MTT, 24 h, read-out: CC50 ± SD, Caco-2
Procedure: as §1, §2, §3, §4

OVCAR-3 cell line = test system: OVCAR-3 cell line; parameters: method as in PMID 33482607; details: cited from earlier work
NUGC cell line = test system: NUGC cell line; parameters: method as in PMID 25948330; details: cited from earlier work
CCD 841 CoTr cells = test: MTT viability assay, normal colonic epithelial cells; type: cell-based, human; details: 24 h, Non-toxic = no toxicity in tested range 1–500 μM
Procedure: as §1, §2, §3, §4

p53 = p53 Human ELISA on HT-29 cell lysates; type: cell-based; details: HT-29, 1 µM, 24 h
Procedure: (§5) To check the effect of compound 6 on the level of p-53 and caspase-3 protein, another test was performed on HT-29 cells, taking doxorubicin as the reference drug.
(§6) To assess the level of caspase-3 and p53 protein, HT-29 cell lysates were used after 24 h of incubation with compounds 5 and 6. The supernatant was collected in the prepared and labeled tubes, the cells from the wells were scraped, and the wells were washed with cold PBS, which was also collected. The tubes were then centrifuged, the supernatant was removed, and the cell pellet was lysed in a cell extraction vessel for 30 min on ice, with […] every 10 min. The lysate was transferred to centrifuge tubes and centrifuged at 13,000 rpm for 10 min at 4 °C. The supernatant was transferred to clean tubes in a microcentrifuge.
(§7) The following kits were used: Human Caspase-3 (active) ELISA Kit (KHO1091) and p53 Human ELISA Kit (BMS256), used following the manufacturer’s instructions. ELISA kits were purchased from Thermo Fisher Scientific (Waltham, MA, USA). The absorbance was measured using a Multiskan GO microplate reader (Thermo Fisher Scientific, Waltham, MA, USA) at wavelengths specific to each kit, as recommended by the manufacturer.

Caspase-3 = test: Human Caspase-3 (active) ELISA on HT-29 cell lysates; type: cell-based; details: HT-29, 1 µM, 24 h
Procedure: as §5, §6, §7

SMILES | IC50 (HepG2 cells) [nM] | SI, LoVo (LoVo cells) | CC50 (LoVo cells) [µM] | CC50 at 24 h [1] [µM] | SI, LoVo/Dx (LoVo/Dx cells) | CC50 (LoVo/Dx cells) [µM] | SI, EPG (EPG cells) | CC50 (EPG cells) [µM] | SI, HT-29 (HT-29 cells) | CC50 (HT-29 cells) [µM] | SI, Caco-2 (Caco-2 cells) | CC50 (Caco-2 cells) [µM] | IC50 (OVCAR-3 cell line) [nM] | IC50 (NUGC cell line) [nM] | CC50 ± SD, CCD 841 CoTr (CCD 841 CoTr cells) | p53 Conc. ± SD (p53) [U/mL] | p53 Fold Change (p53; versus untreated control) | Caspase-3 Conc. ± SD (Caspase-3) [ng/mL] | Caspase-3 Fold Change (Caspase-3; versus untreated control)
Nn1c(Sc2c(O)c3ccccc3oc2=O)nnc1-c1ccncc1 [II] | 1930 |  |  |  |  |  |  |  |  |  |  |  |  |  |  |  |  |  | 
Cc1ccc(N2CCN(Cn3nc(CNC(=O)c4c(C)cc(C)nc4S)n(C)c3=S)CC2)cc1 [Compound 11] |  | 1.98 | 137 ± 5.7 | 271 ± 7.1 | 1.06 | 255 ± 4.8 | 2.28 | 119 ± 3.4 | 1.12 | 242 ± 4.1 | 4.69 | 57.7 ± 4.8 |  |  |  |  |  |  | 
O=C(O)c1cn(C2CC2)c2cc(N3CCN(Cc4c(O)ccc5ccccc45)CC3)c(F)cc2c1=O [V] |  |  |  |  |  |  |  |  |  |  |  |  | 970 |  |  |  |  |  | 
CN1CCN(Cn2nc(-c3ccncc3)n(-c3ccc(Br)cc3)c2=S)CC1 [VIII] |  |  |  |  |  |  |  |  |  |  |  |  |  | 21 |  |  |  |  | 
Cc1cc(C)c(C(=O)NCc2nn(CN3CCN(c4cccc(Cl)c4)CC3)c(=S)n2C(C)C)c(S)n1 [Compound 12, 4,6-dimethyl-N-[(4-(propan-2-yl)-5-thioxo-2-{[4-(3-chlorophenyl)piperazinyl]-methyl}-4,5-dihydro-1H-1,2,4-triazol-3-yl)methyl]-2-sulfanylpyridine-3-carboxamide] |  | 0.77 | 445.9 ± 2.3 | 342.5 ± 3.4 | 0.70 | 487 ± 5.9 | 1.30 | 263 ± 5.7 | 0.73 | 471.2 ± 3.7 | 1.39 | 247 ± 4.9 |  |  |  |  |  |  | 
Cc1cc(C)c(C(=O)NCc2nn(CN3CCN(c4ccc([N+](=O)[O-])cc4)CC3)c(=S)n2C)c(S)n1 [Compound 10, 4,6-dimethyl-N-[(4-methyl-5-thioxo-2-{[4-(4-nitrophenyl)piperazinyl]methyl}-4,5-dihydro-1H-1,2,4-triazol-3-yl)methyl]-2-sulfanylpyridine-3-carboxamide] |  | >>1 ^c | 148 ± 3.7 |  | >>1 ^c | 210 ± 3.3 | >>1 ^c | 212 ± 3.7 | >>1 ^c | 176 ± 6.4 | >>1 ^c | 87.2 ± 5.2 |  |  | Non-toxic ^b |  |  |  | 
O=c1[nH]cc(F)c(=O)[nH]1 [Compound 5-FU, 5-fluorouracil, reference compound] |  | 0.85 | 72.2 ± 1.8 | 61.6 ± 3.7 | 0.27 | 226 ± 2.7 | 0.55 | 111 ± 3.5 | 0.14 | 428.5 ± 2.7 | 0.36 | 170 ± 3.7 |  |  |  |  |  |  | 
COc1cccc2c1C(=O)c1c(O)c3c(c(O)c1C2=O)C[C@@](O)(C(=O)CO)C[C@@H]3O[C@H]1C[C@H](N)[C@H](O)[C@H](C)O1 [Doxorubicin, doxorubicin] |  |  |  |  |  |  |  |  |  |  |  |  |  |  |  | 7.62 ± 0.17 | 4.23 | 0.92 ± 0.23 | 30.67
Cc1cc(C)c(C(=O)NCc2nn(CN3CCN(c4ccccc4)CC3)c(=S)n2-c2ccccc2)c(S)n1 [Compound 4] |  | 1.18 | 201 ± 4.6 | 236 ± 3.5 | 1.17 | 201 ± 4.1 | 1.68 | 141 ± 2.5 | 1.26 | 187.6 ± 1.6 | 1.78 | 133 ± 2.7 |  |  |  |  |  |  | 
Cc1cc(C)c(C(=O)NCc2nn(CN3CCN(c4ccc([N+](=O)[O-])cc4)CC3)c(=S)n2-c2ccccc2)c(S)n1 [Compound 8] |  | >>1 ^c | 178 ± 5.3 |  | >>1 ^c | 321 ± 6.8 | >>1 ^c | 142 ± 6.3 | >>1 ^c | 306 ± 4.9 | >>1 ^c | 84.3 ± 6.8 |  |  | Non-toxic ^b |  |  |  | 
Cc1cc(C)c(C(=O)NCc2nn(CN3CCN(c4ccc([N+](=O)[O-])cc4)CC3)c(=S)n2C(C)C)c(S)n1 [Compound 13] |  | 2.26 | 193 ± 3.7 | 436.1 ± 2.7 | 1.04 | 419 ± 6.2 | 3.63 | 120 ± 8.5 | 1.11 | 393 ± 7.4 | 2.98 | 146 ± 3.6 |  |  |  |  |  |  | 
Cc1cc(C)c(C(=O)NCc2nn(CN3CCN(c4cccc(Cl)c4)CC3)c(=S)n2C)c(S)n1 [Compound 9, 4,6-dimethyl-N-[(4-methyl-5-thioxo-2-{[4-(3-chlorophenyl)piperazinyl]methyl}-4,5-dihydro-1H-1,2,4-triazol-3-yl)methyl]-2-sulfanylpyridine-3-carboxamide] |  | >>1 ^c | 152 ± 2.7 |  | >>1 ^c | 260 ± 4.1 | >>1 ^c | 231 ± 7.1 | >>1 ^c | 253 ± 5.7 | >>1 ^c | 88.6 ± 7.9 |  |  | Non-toxic ^b |  |  |  | 
